Measurements reported in patent US12391650B2, “Catecholamine prodrugs for use in the treatment of Parkinson's disease” (H. Lundbeck A/S, priority 2019, dated 2025).
Like-named read-outs stand apart in the source and are kept apart here.

Tests used:
[1] = man, oral dosing, extensive hepatic first-pass metabolism; cited from earlier work
[2] = PD patients, intravenous (IV); cited from earlier work
human 5-HT2B receptor = target: T1, human 5-HT2B receptor (Homo sapiens, UniProt P41595); assay: 5-HT2B agonist activity assay (IP1 production, HTRF, transfected CHO cells); type: cell-based
T1 construct: host or cells: CHO cells
T1 sequence (P41595 whole entry): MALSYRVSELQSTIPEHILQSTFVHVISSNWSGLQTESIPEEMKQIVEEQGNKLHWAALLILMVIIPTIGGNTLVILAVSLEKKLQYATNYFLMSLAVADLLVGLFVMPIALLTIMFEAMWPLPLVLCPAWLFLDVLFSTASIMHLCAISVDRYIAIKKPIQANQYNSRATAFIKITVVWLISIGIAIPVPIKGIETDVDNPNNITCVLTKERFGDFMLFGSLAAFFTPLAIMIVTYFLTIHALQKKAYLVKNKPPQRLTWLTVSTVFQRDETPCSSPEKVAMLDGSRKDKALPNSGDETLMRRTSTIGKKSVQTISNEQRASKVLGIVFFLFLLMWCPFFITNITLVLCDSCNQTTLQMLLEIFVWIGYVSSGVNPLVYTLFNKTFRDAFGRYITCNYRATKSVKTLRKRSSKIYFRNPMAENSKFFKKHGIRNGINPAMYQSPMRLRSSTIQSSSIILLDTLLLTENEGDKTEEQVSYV
Description: Evaluation of the agonist activity of compounds (I), (Ia), (Ib), (Ic), compound (2), compound (3), compound (6), compound (8), and compound (9) at the human 5-HT2B receptor was performed by Eurofins/Cerep (France) measuring the compound effects on inositol monophosphate (IP1) production using the HTRF detection method. Briefly, the human 5-HT2B receptor was expressed in transfected CHO cells. The cells were suspended in a buffer containing 10 mM Hepes/NaOH (pH 7.4), 4.2 mM KCl, 146 mM NaCl, 1 mM CaCl2, 0.5 mM MgCl2, 5.5 mM glucose and 50 mM LiCl, then distributed in microplates at a density of 4100 cells/well and incubated for 30 minutes at 37° C. in the presence of buffer (basal control), test compound or reference agonist. For stimulated control measurement, separate assay wells contained 1 μM 5-HT. Following incubation, the cells were lysed and the fluorescence acceptor (fluorophen D2-labeled IP1) and fluorescence donor (anti-IP1 antibody labeled with europium cryptate) were added. After 60 minutes at room temperature, the fluorescence transfer was measured at lambda(Ex) 337 nm and lambda(Em) 620 and 665 nm using a microplate reader (Rubystar, BMG). The IP1 concentration was determined by dividing the signal measured at 665 nm by that measured at 620 nm (ratio). The results were expressed as a percent of the control response to 1 μM 5-HT. The standard reference agonist was 5-HT, which was tested in each experiment at several concentrations to generate a concentration-response curve from which its EC50 value is calculated as described above for dopamine functional assays.

[3] = Conversion of compounds in human plasma; type: in vitro ADME; details: for Observed metabolite, incubation in human plasma: 1 μM test compound, 37° C., 0-6 hours
Description: Frozen human plasma was thawed and then centrifuged at 3200×g for 5 minutes to remove debris. The pH value of the supernatant was then measured and adjusted to 7.4±0.1 by adding 1% phosphoric acid or 1 N sodium hydroxide. 2 μL of dosing solution (50 μM for test compounds and 100 μM for positive control (propantheline bromide)) was mixed with 98 μL of blank plasma to achieve 1 μM test compound and 2 μM positive control of final concentration. The mixture was incubated, and samples were withdrawn from the incubations at the pre-determined time points of 0, 0.5, 1, 2, 4 and 6 hours (in duplicate) at 37° C. in water bath. At each corresponding time point 10 μL inhibitor and 20 μL ascorbic acid and 2 μL formic acid (20%) are added, and then added 400 μL of “stop solution” (200 ng/mL tolbutamide plus 200 ng/mL labetalol in 50% ACN/MeOH) to precipitate protein. The substance was mixed thoroughly and thereafter centrifugated at 4,000 rpm for 20 minutes. Then an aliquot of supernatant (50 μL) was transferred from each well to a sample plate and mixed with 100 μL ultrapure water. The plate was shaked at 800 rpm for about 10 minutes before submitting to LC-MS/MS analysis.
Instrumentation used for analysis of plasma and hepatocyte incubation samples:
Mass spectrometer (LC-MS/MS) Shimadzu LC 20-AD Shimadzu UHPLC API 4000. Analytical column ACQUITY UPLC® BEH Phenyl 1.7 μm 2.1×50 mm. Mobile phase A: 0.1% Formic Acid in water. Mobile phase B: 0.1% formic acid in acetonitrile. […] Flow rate 0.7 mL/min.

[4] = PK experiments in rats after oral dosing, plasma compound (I); type: in vivo, Han Wistar rats; details: Wistar rats; for Observed metabolite, in vivo PK study after oral dosing (rats): plasma
Description: Plasma was placed on water-ice following collection. Final storage at approximately −70° C.
Mobile phase B: Acetonitrile. […] Flow rate 0.5 mL/min.
The rats had unrestricted access to the diet.
Mobile phase B: Acetonitrile+0.2% formic acid. […] Flow rate 0.3 mL/min.
Dosing and blood sampling for compound (Ic), compound (2), compound (3), compound (8), and compound (9): Han Wistar rats were supplied by Envigo, UK. […] The rats received a standard laboratory diet Teklad 2014C. The rats had unrestricted access to the diet. […] Rats were given 494 μg/kg (Ic), 392 μg/kg compound (8), 426 μg/kg compound (9), 359 μg/kg compound (3) and 551 μg/kg compound (2).

[5] = Conversion of compounds in human hepatocytes; type: in vitro ADME; details: 1 μM compound, 37° C.
Description: Incubations were conducted in 96-well plates at 1 μM compound concentration in duplicate. The hepatocyte cell concentration was 0.5×10^6 cells/mL used for final incubation at 37° C. in an incubator of 5% CO2 95% relative humidity. The medium control samples were included at 0 and 60 minutes in the absence of cells. The total organic concentration was 1% (DMSO 0.1%) in the final incubation. The controls, (7-ethoxycoumarin and 7-hydroxycoumarin) was incubated parallel at […]. 2 μL of dosing solution (50 μM for test compounds and 100 μM for positive control) was mixed with 98 μL of 100 mM PBS to achieve 1 μM test compound and 2 μM positive control of final concentration. The mixture was incubated, and samples were withdrawn from the incubations at pre-determined time points of 0, 0.5, 1, 2, 4 and 6 hours (in duplicate) at 37° C. in water bath. To each sample, 10 μL inhibitor and 20 μL ascorbic acid and 2 μL formic acid (20%) were added followed by 400 μL of stop solution (200 ng/mL tolbutamide plus 200 ng/mL labetalol in 50% ACN/MeOH). The substance was mixed thoroughly and thereafter centrifuged at 4,000 rpm for 20 minutes. An aliquot of supernatant (50 μL) from each well were transferred to a sample plate and mixed with 100 μL ultrapure water. The plate was shaked at 800 rpm for about 10 minutes before submitting to LC-MS/MS analysis. […]

[6] = rats; cited from earlier work
[7] = various animal models relevant for Parkinson's Disease; cited from earlier work
[8] = rats; cited from earlier work; remark: listed apart in the source
[9] = rat hepatocytes; cited from earlier work
[10] = human hepatocytes; cited from earlier work
[11] = percent of the control response to 1 μM 5-HT

Row | Structure (SMILES) | 5-HT2B % effect @ 10 μM (human 5-HT2B receptor; [11]) [% @ 10 μM] | Observed metabolite, incubation in human plasma [3] | Observed metabolite, in vivo PK study after oral dosing (rats) [4] | In vivo pharmacology, efficacy [7] | Plasma concentration profile of compound (I) after oral dosing, in words [4] | other results
1 | CCCc1cc2c(s1)CN[C@@H]1CCc3cc(OC(C)=O)c(OC(C)=O)cc3[C@@H]21 [Adrogolide] |  |  |  |  |  | Oral bioavailability [1]: ~4%; Antiparkinson efficacy [2]: comparable to that of L-DOPA
2 | CCC[N@+]1(COP(=O)([O-])O)CCC[C@@H]2Cc3c(ccc(O)c3O)C[C@H]21 [Compound (9), ((1S,4aR,10aR)-6,7-dihydroxy-1-propyl-1,2,3,4,4a,5,10,10a-octahydrobenzo[g]quinolin-1-ium-1-yl)methyl hydrogen phosphate] | −1 | Compound (1) | Compound (1) |  |  | 
3 | CCCN1CCC[C@@H]2Cc3c(ccc(O)c3OP(=O)(O)O)C[C@H]21 [Compound (8), (4aR,10aR)-7-hydroxy-1-propyl-1,2,3,4,4a,5,10,10a-octahydrobenzo[g]quinolin-6-yl dihydrogen phosphate] |  | Compound (1) | Compound (1) |  |  | 5-HT2B % effect @ 1 μM (human 5-HT2B receptor; 1 μM, percent of the control response to 1 μM 5-HT): 0% @ 1 μM
4 | CCCN1CCC[C@@H]2Cc3c(ccc(OC)c3O)C[C@H]21 [Compound (3), (4aR,10aR)-7-methoxy-1-propyl-1,2,3,4,4a,5,10,10a-octahydrobenzo[g]quinolin-6-ol] | 27 |  | Compound (1) |  |  | Observed metabolite, incubation in human hepatocytes [5]: Compound (1)
5 | CCCN1CCC[C@@H]2Cc3c(ccc(O)c3O)C[C@H]21 [compound (I), (4aR,10aR)-1-n-Propyl-1,2,3,4,4a,5,10,10a-octahydro-benzo[g]quinoline-6,7-diol] |  |  |  | effective |  | Oral bioavailability, in words [6]: low oral bioavailability; Half-life in the plasma assay ([3]; human plasma, in words): short half-life
6 | CCCN1CCC[C@@H]2Cc3c(ccc(OP(=O)(O)O)c3OP(=O)(O)O)C[C@H]21 [Compound (6), (4aR,10aR)-1-propyl-1,2,3,4,4a,5,10,10a-octahydrobenzo[g]quinoline-6,7-diyl bis(dihydrogen phosphate)] | 4 | Compound (8) |  |  |  | Observed metabolite, incubation in human plasma ([3]; listed as compound (6)): compound (8) was formed; Appearance of compound (I) in incubation ([3]; human plasma, in words): no appearance of compound (I) was observed
7 | CCCN1CCC[C@@H]2Cc3c(ccc(OC(=O)C(C)(C)C)c3OC(=O)C(C)(C)C)C[C@H]21 [(Ic), reference compound] | −5 |  |  |  | extremely low | 
8 | CCCN1CCC[C@@H]2Cc3c(ccc(OCc4ccccc4)c3O)C[C@H]21 [Compound (2), (4aR,10aR)-7-(benzyloxy)-1-propyl-1,2,3,4,4a,5,10,10a-octahydrobenzo[g]quinolin-6-ol] | 30 | Compound (1) | Compound (1) |  |  | Observed metabolite, incubation in human hepatocytes [5]: Compound (1)
9 | CCCN1CCC[C@@H]2CC3=C(CCCC3=O)C[C@H]21 [(Ia), reference compound] |  |  |  | effective | early and high peak plasma concentrations of compound (I) | 5-HT2B % effect @ 30 μM (human 5-HT2B receptor; 30 μM, percent of the control response to 1 μM 5-HT): 58%; Conversion to the active compound (I) [8]: converted to the active compound (I)
10 | CCCN1CCC[C@@H]2Cc3c(ccc4c3OCO4)C[C@H]21 [(Ib), (6aR,10aR)-7-propyl-6,6a,7,8,9,10,10a,11-octahydro-[1,3]dioxolo[4′,5′:5,6]benzo[1,2-g]quinoline] |  |  |  | effective | early and high peak plasma concentrations of compound (I) | Conversion to compound (I) [9]: demonstrated; 5-HT2B receptor agonism, in words (human 5-HT2B receptor): agonist of the 5-HT2B receptor; Conversion to compound (I) [10]: demonstrated
